Data set [1] concerns Human immunodeficiency virus 1. Put plainly: Antiviral activity against HIV1 in human C8116 cells assessed as reduction of p24 protein level after 4 days by ELISA. The data set is classed as functional, organism-based. The settings on record: Human immunodeficiency virus 1, C8116, 96 h.
Data set [2] can be described thus: Cytotoxicity against human C8116 cells after 4 days by MTT assay. The data set is classed as cell-based.

Where a name gives a salt, the structure may show the parent alone. Where only a bound is given, the exact number is not on record here.

Consider `CC1(C)CC(=O)C2=C(O1)[C@@]1(C[C@H]1C(C)(C)O)[C@@H](O)[C@@H](O)C2` [PESTALOFICIOL D], for which the EC50 (as a rule, the concentration at which the effect is half-maximal) in data set [1] stood at 26 µM. Also, the CC50 (as a rule, the concentration giving 50% cytotoxicity) at 96 h in data set [2] was more than 200 µM.
For the molecule `CC(C)(C)NC(=O)[C@@H]1CN(Cc2cccnc2)CCN1C[C@@H](O)C[C@@H](Cc1ccccc1)C(=O)N[C@H]1c2ccccc2C[C@H]1O` [INDINAVIR SULFATE], the EC50 in data set [1] worked out at 0.00881 µM.
With `CC1(C)CC(=O)C2=C(O1)[C@]1(C[C@@H]1C(C)(C)O)[C@@H](O)[C@@H](O)C2` [PESTALOFICIOL B], in data set [1], the EC50 worked out at 26 µM. This molecule also gave a CC50 at 96 h in data set [2] of more than 200 µM.
The matching figures for `CC1(C)CC(=O)C2=C(O1)[C@@]13C[C@@H]1C(C)(C)O[C@H]3[C@@H](O)C2` [PESTALOFICIOL A]: 26 µM and more than 200 µM.

Values taken from ChEMBL document CHEMBL1150370, “Pestaloficiols A-E, bioactive cyclopropane derivatives from the plant endophytic fungus Pestalotiopsis fici” (Bioorg Med Chem, 2008).
